Reference: ChEMBL document CHEMBL1150998, “Enzymatic resolution of AMPA by use of -chymotrypsin” (Bioorg Med Chem Lett, 1993)

What was measured:
[1] = target: Glutamate receptor ionotropic, AMPA (Rattus norvegicus, UniProt P19490+P19491+P19492+P19493); assay: Tested for the inhibitory activity of against Ionotropic glutamate receptor AMPA by [3H]- AMPA binding assay; assay type: protein-complex assay
[2] = organism: Rattus norvegicus; assay: Tested in vitro for the dose response curve in rat cortical wedge preparation

| SMILES | IC50 [1] [µM] | EC50 [2] [µM] |
| --- | --- | --- |
| CCOC(=O)C(N)Cc1c(OCC)noc1C (stereo not drawn) | > 100 |  |
| Cc1onc(O)c1CC(N)C(=O)O (single isomer, unassigned; form 2) |  | 580 |
| Cc1onc(O)c1CC(N)C(=O)O (single isomer, unassigned; form 1) |  | 3.8 |
